In US20220273683A1, “BORON-CONTAINING SMALL MOLECULES” (Bill & Melinda Gates Foundation, priority 2016, published 2022):

Legend:
[1] = system: Staphylococcus aureus, MRSA (ATCC 33591); test: Antibacterial MIC assay (microbroth dilution, CLSI); assay type: cell-based; settings: 35° C., 16-20 hours
Excerpt: (§1) All MIC testing of bacteria followed the Clinical and Laboratory Standards Institute (CLSI) guidelines for antimicrobial testing of aerobic bacteria (Methods for Dilution Antimicrobial Susceptibility Tests for Bacteria that Grow Aerobically; Approved Standard—Tenth Edition, M07-A10; Performance Standards for Antimicrobial Susceptibility Testing; Twenty-fifth Informational Supplement, M100-S25).
(§2) Briefly, the microbroth dilution MIC method was used to quantitatively measure the in vitro antibacterial activity of a compound against a given bacterial isolate. The following bacterial strains were evaluated: Staphylococcus aureus, MRSA (ATCC 33591) and Streptococcus pneumoniae (ATCC 49619). Bacteria were grown in cation-adjusted Mueller-Hinton broth, with additions as required per species growth requirements (e.g. 3% lysed horse blood for fastidious organisms such as S. pneumoniae). A direct colony suspension in saline was prepared from colonies on an overnight agar plate to achieve a turbidity equivalent to 0.5 McFarland standard, which was subsequently diluted into the assay plate to achieve 5×10^5 CFU/mL. Assays plates were prepared by 2-fold dilution of compound across the plate and included a positive growth control.

[2] = system: Streptococcus pneumoniae (ATCC 49619); test: as above; assay type: cell-based; settings: 3% lysed horse blood, 35° C., 16-20 hours
Excerpt: as §1, §2

| SMILES | MIC Staphylococcus aureus, MRSA (ATCC 33591) [1] | MIC Streptococcus pneumoniae (ATCC 49619) [2] |
| --- | --- | --- |
| C[C@@H]1CC[C@@]23CCC(=O)[C@H]2[C@]1(C)[C@H](OC(=O)COc1ccc2c(c1F)B(O)OC2)C[C@@](C)(CCO)[C@@H](O)[C@@H]3C [Compound 25, (3aR,4R,5R,7R,8S,9R,9aS,12R)-8-hydroxy-7-(2-hydroxyethyl)-4,7,9,12-tetramethyl-3-oxodecahydro-4,9a-propanocyclopenta[8]annulen-5-yl2-((7-fluoro-1-hydroxy-1,3-dihydrobenzo[c][1,2]oxaborol-6-yl)oxy)acetate] | B (0.5-2 is B) | C (4-32 is C) |
| COCC[C@]1(C)C[C@@H](OC(=O)COc2ccc3c(c2F)B(O)OC3)[C@]2(C)[C@H](C)CC[C@]3(CCC(=O)[C@H]32)[C@@H](C)[C@@H]1O [Compound 26, (3aR,4R,5R,7R,8S,9R,9aS,12R)-8-hydroxy-7-(2-methoxyethyl)-4,7,9,12-tetramethyl-3-oxodecahydro-4,9a-propanocyclopenta[8]annulen-5-yl2-((7-fluoro-1-hydroxy-1,3-dihydrobenzo[c][1,2]oxaborol-6-yl)oxy)acetate] | A (MIC of ≤0.25 is A) | C (4-32 is C) |
| C[C@@H]1CC[C@@]23CCC(=O)[C@H]2[C@]1(C)[C@H](OC(=O)COc1ccc2c(c1F)B(O)OC2)C[C@@](C)([C@@H]1CO1)[C@@H](O)[C@@H]3C [Compound 27, (3aR,4R,5R,7R,8S,9R,9aS,12R)-8-hydroxy-4,7,9,12-tetramethyl-7-((R)-oxiran-2-yl)-3-oxodecahydro-4,9a-propanocyclopenta[8]annulen-5-yl2-((7-fluoro-1-hydroxy-1,3-dihydrobenzo[c][1,2]oxaborol-6-yl)oxy)acetate] | A (MIC of ≤0.25 is A) | B (0.5-2 is B) |
| CSC[C@]1(C)C[C@@H](OC(=O)COc2ccc3c(c2F)B(O)OC3)[C@]2(C)[C@H](C)CC[C@]3(CCC(=O)[C@H]32)[C@@H](C)[C@@H]1O [Compound 29, (3aR,4R,5R,7R,8S,9R,9aS,12R)-8-hydroxy-4,7,9,12-tetramethyl-7-((methylthio)methyl)-3-oxodecahydro-4,9a-propanocyclopenta[8]annulen-5-yl2-((7-fluoro-1-hydroxy-1,3-dihydrobenzo[c][1,2]oxaborol-6-yl)oxy)acetate] | A (MIC of ≤0.25 is A) | C (4-32 is C) |
| C[C@@H]1CC[C@@]23CCC(=O)[C@H]2[C@]1(C)[C@H](OC(=O)COc1ccc2c(c1F)B(O)OC2)C[C@@](C)(C[S+](C)[O-])[C@@H](O)[C@@H]3C (stereo partly drawn) [Compound 30, (3aR,4R,5R,7R,8S,9R,9aS,12R)-8-hydroxy-4,7,9,12-tetramethyl-7-((methylsulfinyl)methyl)-3-oxodecahydro-4,9a-propanocyclopenta[8]annulen-5-yl2-((7-fluoro-1-hydroxy-1,3-dihydrobenzo[c][1,2]oxaborol-6-yl)oxy)acetate] | B (0.5-2 is B) | C (4-32 is C) |
| C[C@@H]1CC[C@@]23CCC(=O)[C@H]2[C@]1(C)[C@H](OC(=O)COc1ccc2c(c1F)B(O)OC2)C[C@@](C)(C=O)[C@@H](O)[C@@H]3C [Compound 31, (3aR,4R,5R,7R,8S,9R,9aS,12R)-7-formyl-8-hydroxy-4,7,9,12-tetramethyl-3-oxodecahydro-4,9a-propanocyclopenta[8]annulen-5-yl2-((7-fluoro-1-hydroxy-1,3-dihydrobenzo[c][1,2]oxaborol-6-yl)oxy)acetate] | A (MIC of ≤0.25 is A) | B (0.5-2 is B) |
| C[C@@H]1CC[C@@]23CCC(=O)[C@H]2[C@]1(C)[C@H](OC(=O)COc1ccc2c(c1F)B(O)OC2)C[C@@](C)(CN1CCC1)[C@@H](O)[C@@H]3C [Compound 38, (3aR,4R,5R,7S,8S,9R,9aS,12R)-7-(azetidin-1-ylmethyl)-8-hydroxy-4,7,9,12-tetramethyl-3-oxodecahydro-4,9a-propanocyclopenta[8]annulen-5-yl2-((7-fluoro-1-hydroxy-1,3-dihydrobenzo[c][1,2]oxaborol-6-yl)oxy)acetate] | B (0.5-2 is B) | C (4-32 is C) |

Second part, the compound after the results:

| MIC Staphylococcus aureus, MRSA (ATCC 33591) [1] | MIC Streptococcus pneumoniae (ATCC 49619) [2] | SMILES |
| --- | --- | --- |
| B (0.5-2 is B) | C (4-32 is C) | CNC[C@]1(C)C[C@@H](OC(=O)COc2ccc3c(c2F)B(O)OC3)[C@]2(C)[C@H](C)CC[C@]3(CCC(=O)[C@H]32)[C@@H](C)[C@@H]1O [Compound 32, (3aR,4R,5R,7S,8S,9R,9aS,12R)-8-hydroxy-4,7,9,12-tetramethyl-7-((methylamino)methyl)-3-oxodecahydro-4,9a-propanocyclopenta[8]annulen-5-yl2-((7-fluoro-1-hydroxy-1,3-dihydrobenzo[c][1,2]oxaborol-6-yl)oxy)acetate] |
| B (0.5-2 is B) | C (4-32 is C) | C[C@@H]1CC[C@@]23CCC(=O)[C@H]2[C@]1(C)[C@H](OC(=O)COc1ccc2c(c1F)B(O)OC2)C[C@@](C)(CN(C)C)[C@@H](O)[C@@H]3C [Compound 33, (3aR,4R,5R,7S,8S,9R,9aS,12R)-7-((dimethylamino)methyl)-8-hydroxy-4,7,9,12-tetramethyl-3-oxodecahydro-4,9a-propanocyclopenta[8]annulen-5-yl2-((7-fluoro-1-hydroxy-1,3-dihydrobenzo[c][1,2]oxaborol-6-yl)oxy)acetate] |
| C (4-32 is C) | C (4-32 is C) | CCNC[C@]1(C)C[C@@H](OC(=O)COc2ccc3c(c2F)B(O)OC3)[C@]2(C)[C@H](C)CC[C@]3(CCC(=O)[C@H]32)[C@@H](C)[C@@H]1O [Compound 34, (3aR,4R,5R,7S,8S,9R,9aS,12R)-7-((ethylamino)methyl)-8-hydroxy-4,7,9,12-tetramethyl-3-oxodecahydro-4,9a-propanocyclopenta[8]annulen-5-yl2-((7-fluoro-1-hydroxy-1,3-dihydrobenzo[c][1,2]oxaborol-6-yl)oxy)acetate] |
| C (4-32 is C) | C (4-32 is C) | CCCNC[C@]1(C)C[C@@H](OC(=O)COc2ccc3c(c2F)B(O)OC3)[C@]2(C)[C@H](C)CC[C@]3(CCC(=O)[C@H]32)[C@@H](C)[C@@H]1O [Compound 35, (3aR,4R,5R,7S,8S,9R,9aS,12R)-8-hydroxy-4,7,9,12-tetramethyl-3-oxo-7-((propylamino)methyl)decahydro-4,9a-propanocyclopenta[8]annulen-5-yl2-((7-fluoro-1-hydroxy-1,3-dihydrobenzo[c][1,2]oxaborol-6-yl)oxy)acetate] |
| B (0.5-2 is B) | C (4-32 is C) | CCCCNC[C@]1(C)C[C@@H](OC(=O)COc2ccc3c(c2F)B(O)OC3)[C@]2(C)[C@H](C)CC[C@]3(CCC(=O)[C@H]32)[C@@H](C)[C@@H]1O [Compound 36, (3aR,4R,5R,7S,8S,9R,9aS,12R)-7-((butylamino)methyl)-8-hydroxy-4,7,9,12-tetramethyl-3-oxodecahydro-4,9a-propanocyclopenta[8]annulen-5-yl2-((7-fluoro-1-hydroxy-1,3-dihydrobenzo[c][1,2]oxaborol-6-yl)oxy)acetate] |
| B (0.5-2 is B) | C (4-32 is C) | C[C@@H]1CC[C@@]23CCC(=O)[C@H]2[C@]1(C)[C@H](OC(=O)COc1ccc2c(c1F)B(O)OC2)C[C@@](C)(CNC1CC1)[C@@H](O)[C@@H]3C [Compound 37, (3aR,4R,5R,7S,8S,9R,9aS,12R)-7-((cyclopropylamino)methyl)-8-hydroxy-4,7,9,12-tetramethyl-3-oxodecahydro-4,9a-propanocyclopenta[8]annulen-5-yl2-((7-fluoro-1-hydroxy-1,3-dihydrobenzo[c][1,2]oxaborol-6-yl)oxy)acetate] |
| C (4-32 is C) | C (4-32 is C) | C[C@@H]1CC[C@@]23CCC(=O)[C@H]2[C@]1(C)[C@H](OC(=O)COc1ccc2c(c1F)B(O)OC2)C[C@@](C)(CCN1CCC1)[C@@H](O)[C@@H]3C [Compound 39, (3aR,4R,5R,7R,8S,9R,9aS,12R)-7-(2-(azetidin-1-yl)ethyl)-8-hydroxy-4,7,9,12-tetramethyl-3-oxodecahydro-4,9a-propanocyclopenta[8]annulen-5-yl2-((7-fluoro-1-hydroxy-1,3-dihydrobenzo[c][1,2]oxaborol-6-yl)oxy)acetate] |
| C (4-32 is C) | D (≥64 is D) | C[C@@H]1CC[C@@]23CCC(=O)[C@H]2[C@]1(C)[C@H](OC(=O)COc1ccc2c(c1F)B(O)OC2)C[C@@](C)(CCN1CCCCC1)[C@@H](O)[C@@H]3C [Compound 40, (3aR,4R,5R,7R,8S,9R,9aS,12R)-8-hydroxy-4,7,9,12-tetramethyl-3-oxo-7-(2-(piperidin-1-yl)ethyl)decahydro-4,9a-propanocyclopenta[8]annulen-5-yl2-((7-fluoro-1-hydroxy-1,3-dihydrobenzo[c][1,2]oxaborol-6-yl)oxy)acetate] |
